From PMC6437697 (Journal of Medicinal Chemistry, 2019)

How the values were obtained:
Assay in all cases: KINOMEscan
Format in all cases: binding
Conditions in all cases: read-out: % control activity remaining
[1] = molecular target: T1, JAK1(JH1domain-catalytic) (Homo sapiens, UniProt P23458)
T1 construct: JAK1(JH1domain-catalytic); purchased Eurofins DiscoverX KINOMEscan

[2] = molecular target: T2, BRK (Homo sapiens, UniProt Q13882)
T2 construct: purchased Eurofins DiscoverX KINOMEscan

[3] = molecular target: T3, SIK2 (Homo sapiens, UniProt Q9H0K1)
T3 construct: purchased Eurofins DiscoverX KINOMEscan

[4] = molecular target: T4, YANK2 (Homo sapiens, UniProt Q9NY57)
T4 construct: purchased Eurofins DiscoverX KINOMEscan
T4 sequence (Q9NY57 whole entry): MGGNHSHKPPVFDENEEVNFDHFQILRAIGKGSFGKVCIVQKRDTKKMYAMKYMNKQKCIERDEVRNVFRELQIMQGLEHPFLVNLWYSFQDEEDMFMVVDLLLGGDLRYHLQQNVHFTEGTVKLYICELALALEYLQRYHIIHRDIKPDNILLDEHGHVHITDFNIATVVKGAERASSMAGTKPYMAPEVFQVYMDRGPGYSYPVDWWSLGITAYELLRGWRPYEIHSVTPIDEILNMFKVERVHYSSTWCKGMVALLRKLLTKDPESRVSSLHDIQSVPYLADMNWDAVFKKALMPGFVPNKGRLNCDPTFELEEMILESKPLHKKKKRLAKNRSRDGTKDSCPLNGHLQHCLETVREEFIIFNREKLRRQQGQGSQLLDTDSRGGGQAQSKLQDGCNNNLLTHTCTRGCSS

[5] = molecular target: T5, MARK1 (Homo sapiens, UniProt Q9P0L2)
T5 construct: purchased Eurofins DiscoverX KINOMEscan
T5 sequence (Q9P0L2 whole entry): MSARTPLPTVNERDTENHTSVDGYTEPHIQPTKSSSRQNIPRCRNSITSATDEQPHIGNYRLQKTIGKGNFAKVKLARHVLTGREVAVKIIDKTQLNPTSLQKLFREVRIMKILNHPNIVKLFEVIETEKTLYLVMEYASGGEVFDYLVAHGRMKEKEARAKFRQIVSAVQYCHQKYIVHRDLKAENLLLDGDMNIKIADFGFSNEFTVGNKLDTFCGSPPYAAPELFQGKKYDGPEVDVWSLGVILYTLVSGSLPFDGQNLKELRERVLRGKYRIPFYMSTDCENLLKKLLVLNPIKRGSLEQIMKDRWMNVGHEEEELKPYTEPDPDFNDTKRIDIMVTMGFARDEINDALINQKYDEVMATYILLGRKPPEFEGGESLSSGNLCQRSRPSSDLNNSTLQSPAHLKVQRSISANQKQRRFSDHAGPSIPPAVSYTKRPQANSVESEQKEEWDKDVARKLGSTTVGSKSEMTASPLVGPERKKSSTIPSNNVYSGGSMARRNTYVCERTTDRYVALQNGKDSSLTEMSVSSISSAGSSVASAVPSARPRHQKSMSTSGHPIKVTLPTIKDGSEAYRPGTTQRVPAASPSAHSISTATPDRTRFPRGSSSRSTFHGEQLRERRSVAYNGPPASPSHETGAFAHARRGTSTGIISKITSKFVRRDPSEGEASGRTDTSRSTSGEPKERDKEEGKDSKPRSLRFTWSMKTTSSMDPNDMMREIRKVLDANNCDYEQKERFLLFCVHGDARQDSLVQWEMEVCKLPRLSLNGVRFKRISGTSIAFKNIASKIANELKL

[6] = molecular target: T6, DAPK1 (Homo sapiens, UniProt P53355)
T6 construct: purchased Eurofins DiscoverX KINOMEscan

[7] = molecular target: T7, AAK1 (Homo sapiens, UniProt Q2M2I8)
T7 construct: purchased Eurofins DiscoverX KINOMEscan
T7 sequence (Q2M2I8 whole entry): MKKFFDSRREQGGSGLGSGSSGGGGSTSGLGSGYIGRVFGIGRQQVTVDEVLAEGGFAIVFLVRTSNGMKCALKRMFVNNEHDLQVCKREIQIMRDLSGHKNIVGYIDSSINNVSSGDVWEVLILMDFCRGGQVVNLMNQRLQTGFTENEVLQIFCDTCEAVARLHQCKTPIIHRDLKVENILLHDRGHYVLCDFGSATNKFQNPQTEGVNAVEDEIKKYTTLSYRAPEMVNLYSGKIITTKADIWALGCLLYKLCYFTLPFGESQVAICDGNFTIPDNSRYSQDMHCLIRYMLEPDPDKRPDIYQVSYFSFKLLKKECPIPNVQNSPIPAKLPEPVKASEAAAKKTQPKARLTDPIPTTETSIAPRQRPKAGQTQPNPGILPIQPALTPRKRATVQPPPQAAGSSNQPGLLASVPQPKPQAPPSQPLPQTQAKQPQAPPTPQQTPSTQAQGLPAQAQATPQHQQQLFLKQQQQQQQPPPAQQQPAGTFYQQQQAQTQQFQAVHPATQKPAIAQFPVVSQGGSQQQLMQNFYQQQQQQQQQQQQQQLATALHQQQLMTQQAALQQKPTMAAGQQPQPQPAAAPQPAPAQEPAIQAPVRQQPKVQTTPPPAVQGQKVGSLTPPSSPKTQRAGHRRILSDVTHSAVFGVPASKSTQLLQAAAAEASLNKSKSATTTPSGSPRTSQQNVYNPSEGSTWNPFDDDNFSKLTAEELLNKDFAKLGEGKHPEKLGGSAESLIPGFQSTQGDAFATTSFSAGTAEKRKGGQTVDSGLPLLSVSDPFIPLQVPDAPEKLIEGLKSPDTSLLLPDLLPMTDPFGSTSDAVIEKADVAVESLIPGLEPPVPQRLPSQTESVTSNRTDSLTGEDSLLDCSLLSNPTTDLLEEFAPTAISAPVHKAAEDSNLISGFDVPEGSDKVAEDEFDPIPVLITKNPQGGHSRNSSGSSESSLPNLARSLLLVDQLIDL

[8] = molecular target: T8, ZAP70 (Homo sapiens, UniProt P43403)
T8 construct: purchased Eurofins DiscoverX KINOMEscan
T8 sequence (P43403 1-619): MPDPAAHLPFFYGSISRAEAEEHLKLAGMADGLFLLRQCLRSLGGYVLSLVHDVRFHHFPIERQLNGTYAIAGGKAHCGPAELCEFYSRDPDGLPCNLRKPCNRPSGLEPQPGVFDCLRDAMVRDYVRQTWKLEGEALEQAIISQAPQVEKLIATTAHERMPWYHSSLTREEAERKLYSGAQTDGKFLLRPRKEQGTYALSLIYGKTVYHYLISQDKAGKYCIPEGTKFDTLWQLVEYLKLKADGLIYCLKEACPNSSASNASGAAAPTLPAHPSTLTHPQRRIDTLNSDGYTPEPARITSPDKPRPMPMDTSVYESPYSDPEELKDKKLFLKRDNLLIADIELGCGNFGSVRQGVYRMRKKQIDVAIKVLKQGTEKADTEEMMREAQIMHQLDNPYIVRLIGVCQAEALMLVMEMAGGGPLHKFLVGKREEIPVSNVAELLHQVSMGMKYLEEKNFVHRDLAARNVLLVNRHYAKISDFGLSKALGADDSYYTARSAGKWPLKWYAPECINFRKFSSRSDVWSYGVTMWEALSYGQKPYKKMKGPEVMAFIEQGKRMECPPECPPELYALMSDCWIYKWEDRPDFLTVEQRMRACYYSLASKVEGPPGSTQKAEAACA

[9] = molecular target: T9, EPHA8 (Homo sapiens, UniProt P29322)
T9 construct: purchased Eurofins DiscoverX KINOMEscan
T9 sequence (P29322 28-1005): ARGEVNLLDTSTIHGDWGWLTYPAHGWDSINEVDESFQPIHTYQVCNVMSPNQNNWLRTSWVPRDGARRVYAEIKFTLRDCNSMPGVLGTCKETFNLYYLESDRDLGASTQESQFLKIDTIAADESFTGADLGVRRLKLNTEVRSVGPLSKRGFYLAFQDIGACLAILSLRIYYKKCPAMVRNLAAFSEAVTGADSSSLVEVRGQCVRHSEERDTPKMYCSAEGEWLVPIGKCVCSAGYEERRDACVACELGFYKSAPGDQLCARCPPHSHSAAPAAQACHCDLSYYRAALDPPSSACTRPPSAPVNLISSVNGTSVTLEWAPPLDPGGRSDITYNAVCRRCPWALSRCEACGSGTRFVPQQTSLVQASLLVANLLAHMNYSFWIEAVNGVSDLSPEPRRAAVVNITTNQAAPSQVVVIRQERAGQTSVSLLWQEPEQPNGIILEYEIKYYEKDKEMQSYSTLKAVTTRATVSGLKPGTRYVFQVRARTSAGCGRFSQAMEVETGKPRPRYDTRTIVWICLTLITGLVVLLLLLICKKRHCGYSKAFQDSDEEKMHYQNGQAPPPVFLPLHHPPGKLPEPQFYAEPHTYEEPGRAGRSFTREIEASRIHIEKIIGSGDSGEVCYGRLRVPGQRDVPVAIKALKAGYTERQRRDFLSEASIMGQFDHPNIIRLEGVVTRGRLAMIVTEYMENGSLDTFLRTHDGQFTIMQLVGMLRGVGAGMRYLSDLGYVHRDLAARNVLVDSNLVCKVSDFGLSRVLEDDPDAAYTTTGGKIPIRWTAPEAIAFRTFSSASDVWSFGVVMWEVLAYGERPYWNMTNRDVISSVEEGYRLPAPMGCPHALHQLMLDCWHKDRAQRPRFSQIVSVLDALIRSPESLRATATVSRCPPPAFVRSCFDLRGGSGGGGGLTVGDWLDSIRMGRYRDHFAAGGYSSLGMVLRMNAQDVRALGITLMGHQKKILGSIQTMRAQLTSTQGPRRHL

[10] = molecular target: T10, TESK1 (Homo sapiens, UniProt Q15569)
T10 construct: purchased Eurofins DiscoverX KINOMEscan

[11] = molecular target: T11, PIK3CA(C420R) (Homo sapiens, UniProt P42336, C420R)
T11 construct: purchased Eurofins DiscoverX KINOMEscan
T11 sequence (P42336 whole entry C420R): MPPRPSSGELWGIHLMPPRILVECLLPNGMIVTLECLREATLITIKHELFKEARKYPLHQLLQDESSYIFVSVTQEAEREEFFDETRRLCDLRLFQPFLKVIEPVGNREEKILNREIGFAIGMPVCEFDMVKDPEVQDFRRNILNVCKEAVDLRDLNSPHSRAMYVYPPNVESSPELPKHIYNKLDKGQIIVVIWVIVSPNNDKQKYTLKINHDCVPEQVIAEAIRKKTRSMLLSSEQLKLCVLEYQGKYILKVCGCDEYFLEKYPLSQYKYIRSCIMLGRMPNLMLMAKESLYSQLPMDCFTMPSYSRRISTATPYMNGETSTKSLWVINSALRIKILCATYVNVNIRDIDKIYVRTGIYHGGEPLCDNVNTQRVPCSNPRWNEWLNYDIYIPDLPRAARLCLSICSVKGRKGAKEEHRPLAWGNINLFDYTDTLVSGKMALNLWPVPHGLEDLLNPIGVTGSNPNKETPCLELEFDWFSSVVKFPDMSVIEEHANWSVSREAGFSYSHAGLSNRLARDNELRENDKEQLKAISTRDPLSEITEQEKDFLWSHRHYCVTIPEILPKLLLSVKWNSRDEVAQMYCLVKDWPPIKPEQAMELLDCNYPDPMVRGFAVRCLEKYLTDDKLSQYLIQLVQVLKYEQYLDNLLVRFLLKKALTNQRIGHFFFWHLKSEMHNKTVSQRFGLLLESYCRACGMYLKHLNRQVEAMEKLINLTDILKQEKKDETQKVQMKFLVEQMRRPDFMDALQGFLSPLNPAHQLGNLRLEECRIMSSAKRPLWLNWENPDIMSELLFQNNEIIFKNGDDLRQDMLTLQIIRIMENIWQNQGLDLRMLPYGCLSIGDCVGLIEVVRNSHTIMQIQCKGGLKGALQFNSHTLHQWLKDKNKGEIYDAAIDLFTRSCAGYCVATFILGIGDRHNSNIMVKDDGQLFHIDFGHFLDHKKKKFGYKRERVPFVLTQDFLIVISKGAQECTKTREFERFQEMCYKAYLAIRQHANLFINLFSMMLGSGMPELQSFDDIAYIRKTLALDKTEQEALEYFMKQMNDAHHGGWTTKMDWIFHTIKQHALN

[12] = molecular target: T12, FGFR1 (Homo sapiens, UniProt P11362)
T12 construct: purchased Eurofins DiscoverX KINOMEscan
T12 sequence (P11362 22-822): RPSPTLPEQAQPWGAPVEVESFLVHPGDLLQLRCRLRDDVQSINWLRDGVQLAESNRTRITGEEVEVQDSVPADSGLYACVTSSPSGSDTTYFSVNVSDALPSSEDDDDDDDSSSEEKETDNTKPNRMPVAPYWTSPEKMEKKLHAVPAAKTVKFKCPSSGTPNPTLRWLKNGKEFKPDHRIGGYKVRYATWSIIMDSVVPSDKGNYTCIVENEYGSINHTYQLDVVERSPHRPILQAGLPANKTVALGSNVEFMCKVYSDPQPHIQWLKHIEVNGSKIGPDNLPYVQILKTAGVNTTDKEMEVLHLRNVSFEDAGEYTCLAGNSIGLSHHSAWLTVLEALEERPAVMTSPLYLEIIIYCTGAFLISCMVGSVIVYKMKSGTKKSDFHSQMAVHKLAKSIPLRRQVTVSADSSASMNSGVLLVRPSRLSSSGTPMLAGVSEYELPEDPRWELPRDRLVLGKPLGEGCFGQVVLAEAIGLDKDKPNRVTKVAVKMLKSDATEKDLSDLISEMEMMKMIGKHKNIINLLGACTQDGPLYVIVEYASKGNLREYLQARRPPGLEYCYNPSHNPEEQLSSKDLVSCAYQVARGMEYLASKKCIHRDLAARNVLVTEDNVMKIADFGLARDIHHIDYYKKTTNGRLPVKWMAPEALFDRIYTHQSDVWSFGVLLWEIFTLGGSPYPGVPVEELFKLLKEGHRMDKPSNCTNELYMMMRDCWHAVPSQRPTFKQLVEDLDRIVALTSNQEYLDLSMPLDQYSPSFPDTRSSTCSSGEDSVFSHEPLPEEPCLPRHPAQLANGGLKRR

[13] = molecular target: T13, MLK2 (Homo sapiens, UniProt Q02779)
T13 construct: purchased Eurofins DiscoverX KINOMEscan

[14] = molecular target: T14, EIF2AK1 (Homo sapiens, UniProt Q9BQI3)
T14 construct: purchased Eurofins DiscoverX KINOMEscan

[15] = molecular target: T15, MAPKAPK2 (Homo sapiens, UniProt P49137)
T15 construct: purchased Eurofins DiscoverX KINOMEscan

T1 sequence (P23458 875-1154 limits assumed): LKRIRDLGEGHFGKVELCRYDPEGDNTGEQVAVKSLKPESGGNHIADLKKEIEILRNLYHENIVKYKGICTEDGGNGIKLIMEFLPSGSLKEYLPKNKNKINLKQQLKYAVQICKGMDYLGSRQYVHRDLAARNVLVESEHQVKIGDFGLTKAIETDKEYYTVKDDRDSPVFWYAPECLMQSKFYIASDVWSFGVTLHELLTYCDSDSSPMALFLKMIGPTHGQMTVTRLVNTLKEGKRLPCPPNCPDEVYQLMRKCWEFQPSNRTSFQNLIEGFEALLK
T2 sequence (Q13882 whole entry): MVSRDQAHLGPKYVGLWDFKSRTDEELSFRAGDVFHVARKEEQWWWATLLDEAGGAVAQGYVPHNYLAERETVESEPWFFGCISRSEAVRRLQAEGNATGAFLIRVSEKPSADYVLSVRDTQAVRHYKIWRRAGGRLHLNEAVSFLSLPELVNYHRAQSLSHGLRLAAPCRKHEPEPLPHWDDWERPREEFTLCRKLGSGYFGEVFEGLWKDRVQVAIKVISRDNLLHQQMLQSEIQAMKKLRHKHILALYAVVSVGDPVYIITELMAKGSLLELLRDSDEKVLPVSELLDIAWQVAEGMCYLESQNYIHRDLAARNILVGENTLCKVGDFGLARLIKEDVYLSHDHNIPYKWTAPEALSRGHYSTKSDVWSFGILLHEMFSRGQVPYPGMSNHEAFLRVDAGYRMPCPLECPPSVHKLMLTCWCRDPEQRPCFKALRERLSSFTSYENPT

SMILES	remaining binding at 1 µM [1] [%]	remaining binding at 1 µM [2] [%]	remaining binding at 1 µM [3] [%]	remaining binding at 1 µM [4] [%]	remaining binding at 1 µM [5] [%]	remaining binding at 1 µM [6] [%]	remaining binding at 1 µM [7] [%]	remaining binding at 1 µM [8] [%]	remaining binding at 1 µM [9] [%]	remaining binding at 1 µM [10] [%]	remaining binding at 1 µM [11] [%]	remaining binding at 1 µM [12] [%]	remaining binding at 1 µM [13] [%]	remaining binding at 1 µM [14] [%]	remaining binding at 1 µM [15] [%]
Clc1cc(NCC2CC2)c2ncc(-c3ccc4[nH]ncc4c3)n2n1 [compound 2, 6-Chloro-N-(cyclopropylmethyl)-3-(1H-indazol-5-yl)imidazo[1,2-b]pyridazin-8-amine]	100	87	73	94	86	98	39	84	90	92	88	99	100	100	92
O=C(CN1CCOCC1)N[C@H]1CC[C@H](Nc2cc(Cl)nn3c(-c4ccc5[nH]ncc5c4)cnc23)CC1 [compound 26]	100	85	97	100	94	66	28	100	90	91	89	94	92	78	100
CN1CCC(CNc2cc(Cl)nn3c(-c4cc5nc(Nc6ccccc6)[nH]c5cc4F)cnc23)CC1 [compound 31, 6-Chloro-3-(6-fluoro-2-(phenylamino)-1H-benzo[d]imidazol-5-yl)-N-((1-methylpiperidin-4-yl)methyl)imidazo[1,2-b]pyridazin-8-amine]	100	93	100	100	94	99	100	83	92	100	85	87	88	78	100
